Assay results from US7638637B2, “Orally available sphingosine 1-phosphate receptor agonists and antagonists” (University of Virginia Patent Foundation, priority 2003, dated 2009).
Entries after “also recorded” stand apart in the source; their conditions may differ.

Columns and labels:
Type in all cases: biochemical
hS1P3 = target: T1, hS1P3 (Homo sapiens, UniProt Q99500); assay: [γ-35S]GTP binding assay, HEK293T cell membranes, S1P3; conditions: GTPγS binding; for EC50: read-out: EC50 Values (nM) for S1P Analogues at Recombinant S1P Receptors, hS1P3, overexpressed human HEK293 cells
T1 construct: expressed in transfected cells; host or cells: HEK293T cells (transient)
T1 sequence (Q99500 whole entry): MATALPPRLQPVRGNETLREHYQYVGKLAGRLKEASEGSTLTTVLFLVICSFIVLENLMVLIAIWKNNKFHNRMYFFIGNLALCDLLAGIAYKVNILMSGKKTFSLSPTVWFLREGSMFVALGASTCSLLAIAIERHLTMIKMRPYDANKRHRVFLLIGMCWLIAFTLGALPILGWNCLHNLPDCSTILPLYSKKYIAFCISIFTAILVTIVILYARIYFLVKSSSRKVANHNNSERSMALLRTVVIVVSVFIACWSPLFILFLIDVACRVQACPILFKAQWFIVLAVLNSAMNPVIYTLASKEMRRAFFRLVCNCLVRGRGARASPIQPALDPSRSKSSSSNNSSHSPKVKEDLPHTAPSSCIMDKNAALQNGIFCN
Experimental: (§1) Human or mouse S1P5 DNA was mixed with an equal amount of DNA encoding a rat Gi2R protein as well as DNAs encoding cow β1 and γ2 proteins and used to transfect monolayers of HEK293T cells using the calcium phosphate precipitate method. After 60 hours, cells were harvested, and microsomes were prepared, aliquoted, and stored at −70° C. until use.
(§2) After incubating for 30 minutes at 30° C., bound radionuclide was separated from free by filtration through Whatman GF/C paper using a Brandel Cell Harvester (Gaithersburg, Md.).
(§3) Assay of cAMP accumulation was performed as described previously (See Im et al., J. Biol. Chem. 275, 14281-14286 (2000), the disclosure of which is incorporated herein). Assays were conducted on populations of 5×10^5 cells stimulated with 1 μM forskolin in the presence of the phosphodiesterase inhibitor isomethylbutylxanthine (IBMX, 1 mM) for 15 minutes. cAMP was measured by automated radioimmunoassay. The GTPγS studies were performed using zebrafish S1P1 overexpressed rat RH-7777 and human hS1P1, hS1P2, hS1P3 and hS1P5 overexpressed human HEK293 cells.
(§4) An additional series of compounds was tested using the GTPCS binding assay described in Example 2 and in Im et al., J. Biol. Chem. 275, 14281-14286 (2000), the disclosure of which is incorporated herein).

hS1P2 = target: T2, hS1P2 (Homo sapiens, UniProt O95136); assay: [γ-35S]GTP binding assay, HEK293T cell membranes, S1P2; conditions: GTPγS binding; for EC50: read-out: EC50 Values (nM) for S1P Analogues at Recombinant S1P Receptors, hS1P2, overexpressed human HEK293 cells
T2 construct: expressed in transfected cells; host or cells: HEK293T cells (transient)
T2 sequence (O95136 whole entry): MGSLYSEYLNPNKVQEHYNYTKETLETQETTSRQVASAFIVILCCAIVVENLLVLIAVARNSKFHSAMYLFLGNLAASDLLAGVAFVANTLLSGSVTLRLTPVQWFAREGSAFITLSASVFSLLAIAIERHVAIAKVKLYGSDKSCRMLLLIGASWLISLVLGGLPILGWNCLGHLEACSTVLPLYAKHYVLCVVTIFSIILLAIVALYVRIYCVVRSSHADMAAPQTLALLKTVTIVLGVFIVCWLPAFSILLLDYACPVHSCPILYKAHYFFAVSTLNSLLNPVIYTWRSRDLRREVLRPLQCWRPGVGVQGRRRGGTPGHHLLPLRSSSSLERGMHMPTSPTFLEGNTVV
Experimental: as §1, §2, §3, §4

zS1P1 = target: T3, zS1P1 (Danio rerio, UniProt Q9DDK4); assay: [γ-35S]GTP binding assay, zebrafish S1P1 overexpressed in rat RH-7777 cells; conditions: read-out: EC50 Values (nM) for S1P Analogues at Recombinant S1P Receptors, zS1P1; GTPγS binding; zebrafish S1P1 overexpressed rat RH-7777
T3 construct: expressed in transfected cells; host or cells: rat hepatoma RH-7777 cells
T3 sequence (Q9DDK4 1-362): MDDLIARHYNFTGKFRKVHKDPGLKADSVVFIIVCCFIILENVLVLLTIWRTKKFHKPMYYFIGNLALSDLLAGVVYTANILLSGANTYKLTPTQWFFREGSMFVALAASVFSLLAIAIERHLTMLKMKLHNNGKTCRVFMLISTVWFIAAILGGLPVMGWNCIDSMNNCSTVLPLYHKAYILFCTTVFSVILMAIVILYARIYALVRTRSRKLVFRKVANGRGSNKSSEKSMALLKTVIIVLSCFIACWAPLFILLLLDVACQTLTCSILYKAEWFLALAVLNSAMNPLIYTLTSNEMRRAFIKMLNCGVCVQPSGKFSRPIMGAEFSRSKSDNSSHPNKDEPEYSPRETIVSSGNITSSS
Experimental: as §2
Rat hepatoma RH7777 cell monolayers were transfected with human or mouse S1P5/pCR3.1 DNA using the calcium phosphate precipitate method, and clonal populations expressing the neomycin phosphotransferase gene were selected by addition of geneticin (G418) to the culture medium. The RH7777 cells were grown in monolayers at 37° C. in a 5% CO2/95% air atmosphere in growth medium consisting of 90% MEM, […], 2 mM glutamine, and 1 mM sodium pyruvate.
as §3

hS1P1 = target: T4, hS1P1 (Homo sapiens, UniProt P21453); assay: [γ-35S]GTP binding assay, HEK293T cell membranes, S1P1; conditions: GTPγS binding; for EC50: read-out: EC50 Values (nM) for S1P Analogues at Recombinant S1P Receptors, hS1P1, overexpressed human HEK293 cells
T4 construct: expressed in transfected cells; host or cells: HEK293T cells (transient)
T4 sequence (P21453 whole entry): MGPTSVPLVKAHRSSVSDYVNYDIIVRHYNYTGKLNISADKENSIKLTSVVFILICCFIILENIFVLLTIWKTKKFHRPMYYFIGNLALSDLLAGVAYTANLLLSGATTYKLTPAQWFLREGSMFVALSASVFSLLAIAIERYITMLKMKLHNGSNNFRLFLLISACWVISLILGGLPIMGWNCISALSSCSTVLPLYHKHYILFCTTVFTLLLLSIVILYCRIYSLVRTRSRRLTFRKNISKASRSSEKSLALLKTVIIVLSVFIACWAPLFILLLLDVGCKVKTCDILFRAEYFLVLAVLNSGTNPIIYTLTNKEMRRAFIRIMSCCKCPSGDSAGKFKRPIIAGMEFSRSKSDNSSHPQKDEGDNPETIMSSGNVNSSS
Experimental: as §1, §2, §3, §4

hS1P5 = target: T5, hS1P5 (Homo sapiens, UniProt Q9H228); assay: [γ-35S]GTP binding assay, HEK293T cell membranes, S1P5; conditions: read-out: EC50 Values (nM) for S1P Analogues at Recombinant S1P Receptors, hS1P5; GTPγS binding; overexpressed human HEK293 cells
T5 construct: expressed in transfected cells; host or cells: HEK293T cells (transient, calcium phosphate)
T5 sequence (Q9H228 whole entry): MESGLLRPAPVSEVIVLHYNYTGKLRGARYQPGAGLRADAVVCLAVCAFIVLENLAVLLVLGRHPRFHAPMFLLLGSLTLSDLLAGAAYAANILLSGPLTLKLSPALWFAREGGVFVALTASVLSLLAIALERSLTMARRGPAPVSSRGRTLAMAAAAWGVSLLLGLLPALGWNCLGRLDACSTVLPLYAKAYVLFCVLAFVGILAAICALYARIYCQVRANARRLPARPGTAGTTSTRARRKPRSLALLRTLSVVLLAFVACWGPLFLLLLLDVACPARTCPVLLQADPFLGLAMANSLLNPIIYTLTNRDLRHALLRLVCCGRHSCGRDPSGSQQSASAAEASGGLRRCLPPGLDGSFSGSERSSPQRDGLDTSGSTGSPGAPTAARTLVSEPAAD
Experimental: as §1, §2, §3, §4

mS1P5 = target: T6, mS1P5 (Mus musculus, UniProt Q91X56); assay: [γ-35S]GTP binding assay, mouse S1P5; conditions: read-out: EC50 Values (nM) for S1P Analogues at Recombinant S1P Receptors, mS1P5, GTPγS binding
T6 construct: expressed in transfected cells; host or cells: HEK293T cells (transient)
T6 sequence (Q91X56 whole entry): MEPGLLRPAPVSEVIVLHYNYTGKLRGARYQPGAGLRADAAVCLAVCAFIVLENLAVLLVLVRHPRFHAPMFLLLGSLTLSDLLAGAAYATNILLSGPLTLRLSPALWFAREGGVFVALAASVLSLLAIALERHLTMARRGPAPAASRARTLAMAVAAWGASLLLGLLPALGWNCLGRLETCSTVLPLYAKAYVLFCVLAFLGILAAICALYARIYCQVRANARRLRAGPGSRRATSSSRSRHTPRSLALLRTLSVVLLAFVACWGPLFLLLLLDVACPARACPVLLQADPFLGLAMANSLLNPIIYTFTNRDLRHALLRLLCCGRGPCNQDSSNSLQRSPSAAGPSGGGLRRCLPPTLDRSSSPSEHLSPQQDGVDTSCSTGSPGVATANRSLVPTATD
Experimental: as §1, §2, §3

hS1P4 = target: T7, hS1P4 (Homo sapiens, UniProt O95977); assay: [γ-35S]GTP binding assay, HEK293T cell membranes, S1P4; conditions: GTPγS binding
T7 construct: expressed in transfected cells; host or cells: HEK293T cells (transient)
T7 sequence (O95977 1-384): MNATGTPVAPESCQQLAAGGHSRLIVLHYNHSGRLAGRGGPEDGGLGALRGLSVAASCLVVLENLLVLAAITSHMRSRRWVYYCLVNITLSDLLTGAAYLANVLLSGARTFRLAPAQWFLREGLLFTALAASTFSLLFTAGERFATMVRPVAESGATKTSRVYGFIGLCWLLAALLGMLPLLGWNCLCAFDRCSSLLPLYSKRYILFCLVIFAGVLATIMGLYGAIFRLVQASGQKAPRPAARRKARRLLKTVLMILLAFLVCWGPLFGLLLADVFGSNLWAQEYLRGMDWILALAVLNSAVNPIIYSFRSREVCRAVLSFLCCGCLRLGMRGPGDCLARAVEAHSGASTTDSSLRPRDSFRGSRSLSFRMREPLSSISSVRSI
Experimental: as §2, §4

S1P receptors [1] = system: T8, S1P receptors; assay: [γ-35S]GTP binding assay, recombinant S1P receptors in general; conditions: various S1P receptors
T8 construct: other: various S1P receptors
Experimental: (§5) The same results were obtained regardless of whether the recombinant receptor used exogenous G proteins (HEK293T cells) or endogenous G proteins (RH7777 cells). In addition, insect Sf9 cells infected with recombinant baculovirus encoding receptors (e.g. […] The Sf9 cell and HEK293T cell membranes gave similar results. Furthermore, the activities measured in the broken cell assay predicted the responses seen in whole cell assays. […] After incubating for 30 minutes at 30° C., bound radionuclide was separated from free by filtration through Whatman GF/C paper using a Brandel Cell Harvester (Gaithersburg, Md.). Assay of cAMP accumulation was performed as described previously (See Im et al., J. Biol. […] Assays were conducted on populations of 5×10^5 cells stimulated with 1 μM forskolin in the presence of the phosphodiesterase inhibitor isomethylbutylxanthine (IBMX, 1 mM) for 15 minutes. cAMP was measured by automated radioimmunoassay.

S1P receptors [2] = assay: as above; conditions: each receptor
Experimental: as §5

SMILES: CCCCCCCCCc1cccc(NC(=O)[C@H](N)COP(=O)(O)O)c1 [VPC23079]
- agonism or inverse agonism (antagonism) at the S1P3 receptor (hS1P3): agonism
- activity at the S1P2 receptor (hS1P2): inactive; also recorded: failed to show significant activity

SMILES: CCCCCCc1cccc(NC(=O)[C@H](N)COP(=O)(O)O)c1 [VPC23031]
- agonism or inverse agonism (antagonism) at the S1P3 receptor (hS1P3): inverse agonists
- activity at the S1P2 receptor (hS1P2): inactive; also recorded: failed to show significant activity

SMILES: CCCCCCCCCCCCCCNC(=O)[C@@H](N)COP(=O)(O)O [VPC22051]
- EC50 (zS1P1): > 5000 nM
- EC50 (hS1P1): 322 nM
- EC50 (hS1P3): 602 nM
- EC50 (hS1P2): 2760 nM
- EC50 (hS1P5): > 5000 nM
- EC50 (mS1P5): > 5000 nM

SMILES: CCCCCCCCCc1cccc(NC(=O)[C@H](N)CO)c1 [VPC23075]
- activity at the S1P2 receptor (hS1P2): inactive; also recorded: failed to show significant activity
- agonist activity at the S1P4 receptor (hS1P4): good agonist activity
- agonist activity at S1P receptors (S1P receptors [1]): significant agonist activity

SMILES: CCCCCCCCc1ccccc1NC(=O)[C@H](N)CO [VPC23087]
- activity at the S1P2 receptor (hS1P2): inactive; also recorded: failed to show significant activity
- agonist activity at the S1P4 receptor (hS1P4): good agonist activity
- agonist activity at S1P receptors (S1P receptors [1]): significant agonist activity

SMILES: CCCCCCCCCCc1cccc(NC(=O)[C@H](N)COP(=O)(O)O)c1 [VPC23069]
- agonism or inverse agonism (antagonism) at the S1P3 receptor (hS1P3): agonism
- activity at the S1P2 receptor (hS1P2): inactive; also recorded: failed to show significant activity

SMILES: CCCCCCCCCCc1cccc(NC(=O)[C@H](N)CO)c1 [VPC23065]
- activity at the S1P2 receptor (hS1P2): inactive; also recorded: failed to show significant activity
- agonist activity at the S1P4 receptor (hS1P4): good agonist activity
- agonist activity at S1P receptors (S1P receptors [1]): significant agonist activity

SMILES: CCCCCCCCCCCCC/C=C/[C@@H](O)[C@@H](N)COP(=O)(O)O [Compound S1P, Sphingosine-1-phosphate, reference compound]
- increase of GTPγS binding at each receptor (S1P receptors [2]): 2-5 fold

SMILES: CCCCCCCCc1ccccc1NC(=O)[C@H](N)COP(=O)(O)O [VPC23089]
- agonism or inverse agonism (antagonism) at the S1P3 receptor (hS1P3): inverse agonists
- activity at the S1P2 receptor (hS1P2): inactive; also recorded: failed to show significant activity

SMILES: CCCCCCCCCCCCCCNC(=O)[C@H](N)COP(=O)(O)O [VPC22135]
- potency compared with S1P at the human S1P1 receptor (hS1P1): approached the potency of S1P
- potency compared with S1P at the human S1P3 receptor (hS1P3): approached the potency of S1P

SMILES: CCCCCCCCCCCCCCOC(=O)[C@@H](N)COP(=O)(O)O [VPC22053]
- EC50 (zS1P1): > 5000 nM
- less potent than enantiomer VPC22135 at the S1P1 receptor (hS1P1): more than 1 log order
- EC50 (hS1P1): 397 nM
- less potent than enantiomer VPC22135 at the S1P3 receptor (hS1P3): more than 1 log order
- EC50 (hS1P3): 862 nM
- EC50 (hS1P2): 2680 nM
- EC50 (hS1P5): 1610 nM
- EC50 (mS1P5): 2010 nM

SMILES: CCCCCCCCc1cccc(NC(=O)[C@H](N)COP(=O)(O)O)c1 [VPC23019]
- antagonism at S1P1 (hS1P1; competition with S1P): antagonism
- agonism or inverse agonism (antagonism) at the S1P3 receptor (hS1P3): inverse agonists
- activity at the S1P2 receptor (hS1P2): inactive; also recorded: failed to show significant activity
